Test results taken from publication PMC11183015, “In vivo stable ^211At-labeled prostate-specific membrane antigen-targeted tracer using a neopentyl glycol structure” (EJNMMI Radiopharmacy and Chemistry, 2024).
Marks after values point to notes of the source that are not given here.

What was measured:
Type in all cases: in vivo, mouse
[1] = test system: LNCaP cell xenografts; experiment: Biodistribution of radioactivity in tumor-bearing mice; details: for Radioactivity in Intestine / Radioactivity in Neck / Radioactivity in Stomach: LNCaP tumor-bearing BALB/c-nu/nu mice; for Radioactivity in Blood / Radioactivity in Bone / Radioactivity in Heart / Radioactivity in Kidney / Radioactivity in Liver / Radioactivity in Lung / Radioactivity in Muscle / Radioactivity in Pancreas / Radioactivity in Spleen / Radioactivity in Tumor: male, BALB/c-nu/nu, mouse, in vivo
Method: Animal studies were conducted in accordance with the institutional guidelines approved by the Chiba University Animal Care Committee (Permit No. 4–183). Five-week-old male ddY mice and BALB/c-nu/nu mice were purchased from Japan SLC Inc. (Hamamatsu, Japan). LNCaP cells (5.0 × 10^6 cells) were suspended in 100 μL of PBS and Matrigel (BD Biosciences, Franklin Lakes, NJ, USA) in a 1:1 ratio. Tumor xenograft models were prepared via subcutaneous injection of this LNCaP cell suspension into BALB/c nude mice.
Biodistribution studies were conducted using male BALB/c-nu/nu mice bearing LNCaP cell xenografts at 1 and 3 h postinjection of [^211At]At-NpG-D-PSMA (100 µL, 37 kBq) and 1 and 6 h postinjection of ^125I-labeled PSMA derivative (100 µL, 11.1 kBq). In the blocking study, [^125I]I-NpG-D-PSMA was coinjected with 2-PMPA (50 mg/kg weight) into tumor-bearing mice via the tail vein. At 1 h postinjection, the mice were sacrificed. The tissues of interest were excised and weighed, and the radioactivity counts in each tissue were determined using an auto-well gamma counter. Each value was expressed as the mean percent injected dose/g tissue ± SD for a group of 3–5 animals, except those for the stomach, intestine, and thyroid.

[2] = Analysis of radiometabolites in urine by RP-HPLC; details: normal ddY mice, urine up to 6 h after injection
Method: Urine samples were collected from 6-week-old ddY mice 6 h after injection of each ^125I-labeled PSMA derivative (100 µL, 370 kBq). After ethanol precipitation of proteins, the urine samples were filtered through a polycarbonate membrane (0.45 µm) and analyzed by RP-HPLC (System 2).

[3] = Biodistribution of radioactivity in normal mice
Method: Six-week-old male ddY mice were injected via the tail vein with each radiolabeled PSMA derivative. Animals were sacrificed and the organs were dissected at 10 min, 1 h, 3 h, and 6 h after injection. Metabolic cages were used for housing normal mice. The tissues of interest were excised and weighed, and the radioactivity counts in each tissue were determined using an auto-well gamma counter. Each value was expressed as the mean percent injected dose/g tissue ± SD for a group of 3–5 animals, except those for the stomach, intestine, and thyroid.

[4] = normal ddY mice, i.v., 6 h, metabolic cages

Radioactivity in Intestine ([1]; 1 h): 2.52 ± 0.29^a %ID
Radioactivity in Neck ([1]; 1 h): 0.45 ± 0.13^a %ID
Radioactivity in Stomach ([1]; 1 h): 0.23 ± 0.04 %ID
Radioactivity in Intestine ([1]; 6 h): 1.87 ± 0.41 %ID
Radioactivity in Neck ([1]; 6 h): 3.19 ± 1.28 %ID
Radioactivity in Stomach ([1]; 6 h): 0.15 ± 0.07 %ID
Radioactivity in Blood ([1]; 1 h): 0.66 ± 0.18 %ID/g
Radioactivity in Bone ([1]; 1 h): 0.47 ± 0.12^a %ID/g
Radioactivity in Heart ([1]; 1 h): 1.62 ± 0.87 %ID/g
Radioactivity in Kidney ([1]; 1 h): 223 ± 5.91^a %ID/g
Radioactivity in Liver ([1]; 1 h): 1.85 ± 0.50^a %ID/g
Radioactivity in Lung ([1]; 1 h): 2.78 ± 0.93 %ID/g
Radioactivity in Muscle ([1]; 1 h): 0.64 ± 0.21^a %ID/g
Radioactivity in Pancreas ([1]; 1 h): 1.17 ± 0.38 %ID/g
Radioactivity in Spleen ([1]; 1 h): 37.0 ± 10.4 %ID/g
Radioactivity in Tumor ([1]; 1 h): 9.19 ± 1.89^a %ID/g
Radioactivity in Blood ([1]; 6 h): 0.11 ± 0.03^a %ID/g
Radioactivity in Bone ([1]; 6 h): 0.09 ± 0.02 %ID/g
Radioactivity in Heart ([1]; 6 h): 0.22 ± 0.06^a %ID/g
Radioactivity in Kidney ([1]; 6 h): 226 ± 30.0 %ID/g
Radioactivity in Liver ([1]; 6 h): 0.44 ± 0.02^a %ID/g
Radioactivity in Lung ([1]; 6 h): 0.59 ± 0.12^a %ID/g
Radioactivity in Muscle ([1]; 6 h): 0.27 ± 0.31 %ID/g
Radioactivity in Pancreas ([1]; 6 h): 0.26 ± 0.08^a %ID/g
Radioactivity in Spleen ([1]; 6 h): 4.55 ± 1.18^a %ID/g
Radioactivity in Tumor ([1]; 6 h): 11.0 ± 2.68^a %ID/g
Radioactivity in Blood ([3]; normal ddY mice, i.v., 10 min): 1.48 ± 0.20^b %ID/g
Radioactivity in Bone ([3]; normal ddY mice, i.v., 10 min): 0.68 ± 0.18^a %ID/g
Radioactivity in Heart ([3]; normal ddY mice, i.v., 10 min): 1.12 ± 0.24 %ID/g
Radioactivity in Intestine ([3]; normal ddY mice, i.v., 10 min): 2.49 ± 0.66 %ID
Radioactivity in Kidney ([3]; normal ddY mice, i.v., 10 min): 92.3 ± 11.0^b %ID/g
Radioactivity in Liver ([3]; normal ddY mice, i.v., 10 min): 1.64 ± 0.33^a %ID/g
Radioactivity in Lung ([3]; normal ddY mice, i.v., 10 min): 2.15 ± 0.49^a %ID/g
Radioactivity in Muscle ([3]; normal ddY mice, i.v., 10 min): 0.62 ± 0.18^a %ID/g
Radioactivity in Neck ([3]; normal ddY mice, i.v., 10 min): 0.34 ± 0.09^a %ID
Radioactivity in Pancreas ([3]; normal ddY mice, i.v., 10 min): 0.80 ± 0.16 %ID/g
Radioactivity in Spleen ([3]; normal ddY mice, i.v., 10 min): 2.23 ± 1.10 %ID/g
Radioactivity in Stomach ([3]; normal ddY mice, i.v., 10 min): 0.33 ± 0.09 %ID
Radioactivity in Blood ([3]; normal ddY mice, i.v., 1 h): 0.26 ±0.01 %ID/g
Radioactivity in Bone ([3]; normal ddY mice, i.v., 1 h): 0.36 ± 0.43 %ID/g
Radioactivity in Heart ([3]; normal ddY mice, i.v., 1 h): 0.60 ± 0.37 %ID/g
Radioactivity in Intestine ([3]; normal ddY mice, i.v., 1 h): 3.40 ± 0.86^a %ID
Radioactivity in Kidney ([3]; normal ddY mice, i.v., 1 h): 113.6 ±3.86^ab %ID/g
Radioactivity in Liver ([3]; normal ddY mice, i.v., 1 h): 0.99 ± 0.14^ab %ID/g
Radioactivity in Lung ([3]; normal ddY mice, i.v., 1 h): 0.69 ± 0.16^ab %ID/g
Radioactivity in Muscle ([3]; normal ddY mice, i.v., 1 h): 0.14 ± 0.03 %ID/g
Radioactivity in Neck ([3]; normal ddY mice, i.v., 1 h): 0.07 ± 0.03^a %ID
Radioactivity in Pancreas ([3]; normal ddY mice, i.v., 1 h): 1.40 ± 1.78 %ID/g
Radioactivity in Spleen ([3]; normal ddY mice, i.v., 1 h): 1.05 ± 0.19^ab %ID/g
Radioactivity in Stomach ([3]; normal ddY mice, i.v., 1 h): 0.35 ± 0.30 %ID
Radioactivity in Blood ([3]; normal ddY mice, i.v., 3 h): 0.04 ± 0.01 %ID/g
Radioactivity in Bone ([3]; normal ddY mice, i.v., 3 h): 0.09 ± 0.04 %ID/g
Radioactivity in Heart ([3]; normal ddY mice, i.v., 3 h): 0.06 ± 0.01 %ID/g
Radioactivity in Intestine ([3]; normal ddY mice, i.v., 3 h): 4.96 ± 0.17^ab %ID
Radioactivity in Kidney ([3]; normal ddY mice, i.v., 3 h): 38.6 ± 11.9^a %ID/g
Radioactivity in Liver ([3]; normal ddY mice, i.v., 3 h): 0.43 ± 0.01^ab %ID/g
Radioactivity in Lung ([3]; normal ddY mice, i.v., 3 h): 0.21 ± 0.03^ab %ID/g
Radioactivity in Muscle ([3]; normal ddY mice, i.v., 3 h): 0.10 ± 0.05 %ID/g
Radioactivity in Neck ([3]; normal ddY mice, i.v., 3 h): 0.01 ± 0.00 %ID
Radioactivity in Pancreas ([3]; normal ddY mice, i.v., 3 h): 0.12 ± 0.03 %ID/g
Radioactivity in Spleen ([3]; normal ddY mice, i.v., 3 h): 0.22 ± 0.07^ab %ID/g
Radioactivity in Stomach ([3]; normal ddY mice, i.v., 3 h): 0.08 ± 0.02^b %ID
Radioactivity in Blood ([3]; normal ddY mice, i.v., 6 h): 0.03 ± 0.02 %ID/g
Radioactivity in Bone ([3]; normal ddY mice, i.v., 6 h): 0.05 ± 0.01 %ID/g
Radioactivity in Heart ([3]; normal ddY mice, i.v., 6 h): 0.05 ± 0.05 %ID/g
Radioactivity in Intestine ([3]; normal ddY mice, i.v., 6 h): 4.60 ± 2.56 %ID
Radioactivity in Kidney ([3]; normal ddY mice, i.v., 6 h): 21.2 ± 9.70^a %ID/g
Radioactivity in Liver ([3]; normal ddY mice, i.v., 6 h): 0.53 ±0.02^ab %ID/g
Radioactivity in Lung ([3]; normal ddY mice, i.v., 6 h): 0.09 ± 0.03^a %ID/g
Radioactivity in Muscle ([3]; normal ddY mice, i.v., 6 h): 0.05 ± 0.01 %ID/g
Radioactivity in Neck ([3]; normal ddY mice, i.v., 6 h): 0.02 ± 0.01 %ID
Radioactivity in Pancreas ([3]; normal ddY mice, i.v., 6 h): 0.07 ± 0.04 %ID/g
Radioactivity in Spleen ([3]; normal ddY mice, i.v., 6 h): 0.11 ± 0.03^a %ID/g
Radioactivity in Stomach ([3]; normal ddY mice, i.v., 6 h): 0.23 ± 0.29 %ID
Radioactivity in Feces [3, 4]: 0.45 ± 0.48 %ID
Radioactivity in Urine [3, 4]: 53.3 ± 5.56 %ID
Accumulation in the stomach and thyroid (stability against deiodination) ([3]; normal mice): low accumulation
Compound: O=C(O)CCC(NC(=O)NC(CCCCNC(=O)C(Cc1ccc2ccccc2c1)NC(=O)C(CCC(=O)O)NC(=O)C(CCC(=O)O)NC(=O)COCC(CO)(CO)C[125I])C(=O)O)C(=O)O [[^125I]I-NpG-L-PSMA]
Form of radioactivity excreted in urine [2]: intact [^125I]I-NpG-L-PSMA and as radiometabolites
